IC50 data for 14 compounds are collected here from patent US10174044B2, “Fused pyridines as kinase inhibitors” (BRISTOL-MYERS SQUIBB COMPANY, priority 2015, dated 2019).

SMILES strings stand for the structures. pIC50: −log10 of the molar value.

As usually defined, the pIC50 is the IC50 on a negative log10 scale, so that one unit is a factor of ten.

Chain of GST-Xa-hAAK1 (Q2M2I8 whole entry): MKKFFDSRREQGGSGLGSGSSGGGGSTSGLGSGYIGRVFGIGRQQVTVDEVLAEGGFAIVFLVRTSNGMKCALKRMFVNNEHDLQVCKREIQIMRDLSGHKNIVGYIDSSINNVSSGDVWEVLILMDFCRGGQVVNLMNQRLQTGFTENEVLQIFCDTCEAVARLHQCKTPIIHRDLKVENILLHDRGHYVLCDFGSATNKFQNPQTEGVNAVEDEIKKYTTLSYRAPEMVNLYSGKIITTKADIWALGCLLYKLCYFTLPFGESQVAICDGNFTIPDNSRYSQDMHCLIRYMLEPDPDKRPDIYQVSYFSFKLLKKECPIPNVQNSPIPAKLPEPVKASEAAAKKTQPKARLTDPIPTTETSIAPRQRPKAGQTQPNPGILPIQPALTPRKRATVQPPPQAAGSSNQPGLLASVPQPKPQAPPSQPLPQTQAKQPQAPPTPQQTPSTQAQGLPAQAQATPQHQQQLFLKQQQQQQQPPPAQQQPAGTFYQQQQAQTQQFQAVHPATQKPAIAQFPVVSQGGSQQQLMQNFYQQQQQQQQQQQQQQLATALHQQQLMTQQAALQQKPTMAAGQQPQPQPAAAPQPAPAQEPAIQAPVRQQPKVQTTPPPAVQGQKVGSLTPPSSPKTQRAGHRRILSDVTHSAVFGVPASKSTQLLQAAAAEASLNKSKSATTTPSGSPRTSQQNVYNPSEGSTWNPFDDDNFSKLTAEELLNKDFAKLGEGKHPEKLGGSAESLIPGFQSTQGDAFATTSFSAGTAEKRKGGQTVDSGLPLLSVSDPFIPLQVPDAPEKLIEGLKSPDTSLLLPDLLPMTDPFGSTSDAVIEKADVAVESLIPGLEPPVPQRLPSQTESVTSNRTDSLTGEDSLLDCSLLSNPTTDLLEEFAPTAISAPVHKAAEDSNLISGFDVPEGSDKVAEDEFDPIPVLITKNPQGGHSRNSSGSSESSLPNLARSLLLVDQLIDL

The target in this test is GST-Xa-hAAK1 (Homo sapiens (Human), UniProt Q2M2I8). The test can be described thus: AAK1 Kinase Assay. The format is biochemical. The note with it: bacterially expressed GST-Xa-hAAK1 3.5 nM; ATP 22 μM; fluoresceinated peptide substrate 1.5 μM; 3 hours at room temperature. As to the method:
The assays were performed in U-bottom 384-well plates. […] The reactions were initiated by the combination of bacterially expressed, GST-Xa-hAAK1 with substrates and test compounds. The reactions were incubated at room temperature for 3 hours and terminated by adding 60 μl of 35 mM EDTA buffer to each sample. The reactions were analyzed on the Caliper LabChip 3000 (Caliper, Hopkinton, Mass.) by electrophoretic separation of the fluorescent substrate and phosphorylated product. […] Compounds were dissolved at 10 mM in dimethylsulfoxide (DMSO) and evaluated at eleven concentrations. IC50 values were derived by non-linear regression analysis.
On to `CC(=O)Nc1cc2c(cn1)OCc1cc(OC[C@](C)(N)CC(C)C)ccc1-2` [Example 38, (R)—N-(8-((2-amino-2,4-dimethylpentyl)oxy)-6H-isochromeno[3,4-c]pyridin-2-yl)acetamide], for which the pIC50 was 8.11.
The value for `COC(=O)Nc1cc2c(cn1)OCc1cc(OCC(C)(N)CC(C)C)ccc1-2` (centres unmarked) [Example 39, methyl (8-((2-amino-2,4-dimethylpentyl)oxy)-6H-isochromeno[3,4-c]pyridin-2-yl)carbamate] was 8.09; that for `CCOC(=O)Nc1cc2c(cn1)OCc1cc(OC[C@](C)(N)CC(C)C)ccc1-2` [Example 40, (R)-ethyl (8-((2-amino-2,4-dimethylpentyl)oxy)-6H-isochromeno[3,4-c]pyridin-2-yl)carbamate] was 8.89; that for `CCOC(=O)Nc1cc2c(cn1)OCc1cc(OC[C@@](C)(N)CC(C)C)ccc1-2` [Example 41, (S)-ethyl (8-((2-amino-2,4-dimethylpentyl)oxy)-6H-isochromeno[3,4-c]pyridin-2-yl)carbamate] was 9.21.
As to `CC(C)CC(C)(N)COc1ccc2c(c1)COc1cnc(NCC(F)(F)F)cc1-2` (centres unmarked) [Example 42, 8-((2-amino-2,4-dimethylpentyl)oxy)-N-(2,2,2-trifluoroethyl)-6H-isochromeno[3,4-c]pyridin-2-amine], the pIC50 was 7.06.
On to `CC(C)C[C@](C)(N)COc1ccc2c(c1)COc1cnc(NCC(F)(F)F)cc1-2` [Example 43, (S)-8-((2-amino-2,4-dimethylpentyl)oxy)-N-(2,2,2-trifluoroethyl)-6H-isochromeno[3,4-c]pyridin-2-amine], for which the negative-log IC50 (pIC50) was 7.25.
Under `CC(C)C[C@@](C)(N)COc1ccc2c(c1)COc1cnc(NCC(F)(F)F)cc1-2` [Example 44, (R)-8-((2-amino-2,4-dimethylpentyl)oxy)-N-(2,2,2-trifluoroethyl)-6H-isochromeno[3,4-c]pyridin-2-amine] stands 6.74; under `COC(=O)Nc1cc2c(cn1)OCc1c-2ccc(OC[C@@](C)(N)CC(C)C)c1F` [Example 45, (S)-methyl (8-((2-amino-2,4-dimethylpentyl)oxy)-7-fluoro-6H-isochromeno[3,4-c]pyridin-2-yl)carbamate], 9.04.
Consider `CCOC(=O)Nc1nc(Cl)c2c(c1Cl)-c1ccc(OC[C@@](C)(N)CC(C)C)cc1CO2` [Example 46, (S)-ethyl (8-((2-amino-2,4-dimethylpentyl)oxy)-1,4-dichloro-6H-isochromeno[3,4-c]pyridin-2-yl)carbamate], for which the negative-log IC50 (pIC50) was 7.35.
Turning to `CCOC(=O)Nc1ncc2c(c1Cl)-c1ccc(OC[C@@](C)(N)CC(C)C)cc1CO2` [Example 47, (S)-ethyl (8-((2-amino-2,4-dimethylpentyl)oxy)-1-chloro-6H-isochromeno[3,4-c]pyridin-2-yl)carbamate], the pIC50 was 7.59.
For the compound `CC(C)C[C@](C)(N)COc1ccc2c(c1)COc1cnc(C(F)F)cc1-2` [Example 48, (S)-1-((2-(difluoromethyl)-6H-isochromeno[3,4-c]pyridin-8-yl)oxy)-2,4-dimethylpentan-2-amine], the pIC50 is 7.89.
In the case of `COC(=O)Nc1cc2c(cn1)OCc1cc(OC[C@@](C)(N)CC(C)C)c(F)cc1-2` [Example 49, (S)-methyl (8-((2-amino-2,4-dimethylpentyl)oxy)-9-fluoro-6H-isochromeno[3,4-c]pyridin-2-yl)carbamate], the negative-log IC50 (pIC50) is 8.27.
On to `Cc1nccc2c1OCc1cc(OC[C@@](C)(N)CC(C)C)ccc1-2` [Example 50, (S)-2,4-dimethyl-1-((4-methyl-6H-isochromeno[3,4-c]pyridin-8-yl)oxy)pentan-2-amine], for which the negative-log IC50 (pIC50) is 7.96.
On to `Cc1cc2c(cn1)OCc1cc(OC[C@@](C)(N)CC(C)C)ccc1-2` [Example 51, (S)-2,4-dimethyl-1-((2-methyl-6H-isochromeno[3,4-c]pyridin-8-yl)oxy)pentan-2-amine], for which the pIC50 is 6.92.
